Experimental data as given in patent US20170119760A1 (AB SCIENCE, priority 2015, published 2017).

Assays:
[1] = test system: C57BL/6 mice; assay: Mortality after MPTP intoxication; format: in vivo; settings: 24 hours after treatment by the MPTP
Source text: Brain samples were collected after mice anesthesia and sacrifice.

[2] = test system: tyrosine hydroxylase expression; assay: MPTP mouse model: tyrosine hydroxylase ELISA assay of total brain protein extract; settings: for Mean expression of tyrosine hydroxylase: ELISA, control 0.275
Description: The microliter plate wells were coated overnight at 4° C. with 5 μg of total brain protein extract. All unbound sites were blocked with a blocking buffer 10% FCS in PBS 1 hour at room temperature. Then, the anti-tyrosine hydroxylase rabbit polyclonal antibody, diluted 1:1000 was added for 2 hours at room temperature.

[3] = test system: monoamine oxidase; assay: MPTP mouse model: monoamine oxidase fluorometric assay of total brain protein extract; settings: for Monoamine oxidase fluorometric assay: total brain protein extract, control = 100
[4] = test system: tyrosine hydroxylase expression; assay: MPTP mouse model: tyrosine hydroxylase immunohistochemistry on coronal brain sections; format: in vivo, C57BL/6 mice; settings: MPTP + masitinib 2×5 mg/kg; 5 μm-thick coronal sections
Description: The 5 μM-thick coronal sections were deparaffinized and hydrated, Endogenous peroxydase were inhibited with a dual endogenous enzyme block solution (Cat #S2003, DakoCytonation). Non specific protein binding was blocked with 1% BSA in PBS, pH=7,4. […] Peroxidase staining was obtained using the AbCys Histogreen substrate kit (Cat #E109, AbCys) and counterstained with a Neutral Red solution. After dehydration the sections were cover-slipped with Eukitt®.

[5] = test system: human cord blood mast cells; settings: cited from earlier work

**Q.** For `CN1CC=C(c2ccccc2)CC1` [MPTP, 1-methyl-4-phenyl-1,2,3,6-tetrahydropyridine, reference compound], which mortality [1] is on record?
**A.** No mortality

**Q.** And the “Mean expression of tyrosine hydroxylase” value ([2]; MPTP alone (4 × 20 mg/kg), solvent treated)?
**A.** 0.175

**Q.** And the “Monoamine oxidase fluorometric assay” value ([3]; MPTP alone)?
**A.** 108

**Q.** What does the source list for `Cc1ccc(NC(=O)c2ccc(CN3CCN(C)CC3)cc2)cc1Nc1nc(-c2cccnc2)cs1` [Masitinib, 4-(4-methylpiperazin-1-ylmethyl)-N-[4-methyl-3-(4-pyridin-3ylthiazol-2-ylamino)phenyl]benzamide]?
**A.** attenuation of tyrosine hydroxylase destruction by immunohistochemistry [4]: reproducible; FccRI-mediated degranulation of human cord blood mast cells [5]: inhibition; decrease of tyrosine hydroxylase expression in response to MPTP treatment ([2]; MPTP + masitinib 2×5 mg/kg cohort): significantly diminished decrease; Mean expression of tyrosine hydroxylase ([2]; MPTP + masitinib 2 × 5 mg/kg per os, day -7 to day 7): 0.215; Mean expression of tyrosine hydroxylase ([2]; masitinib alone 2 × 30 mg/kg per os, no MPTP): 0.225; basal expression of tyrosine hydroxylase compared with control ([2]; masitinib alone, no MPTP): did not modify significantly; Monoamine oxidase fluorometric assay ([3]; MPTP + masitinib 2 × 5 mg/kg): 115; activity of monoamine oxidase with respect to the control group ([3]; MPTP in combination with masitinib): maintained
